Source: PubChem BioAssay AID1963838 (Molecular Pharmacology Branch, DTP, NCI, 2024)

Tested on: 855422-203-R-J1-PDC complex spheroid viability
Experiment: Anticancer human tumor 855422-203-R-J1-PDC patient-derived bladder carcinoma cell line growth inhibition [POLQ]
Conditions: for IC50: curve of first compound; for viability, T/C: stronger effect = lower value
Procedure: Multicellular complex tumor spheroid response to Polymerase (POL) inhibitors (novobiocin, ART-558, RP6685) in combination with a variety of drugs and investigational agents in selected tumor cell lines
The POL inhibitors (novobiocin, ART-558, and RP6685) were evaluated both individually and in combination with standard of care and investigational anticancer small molecules within a complex spheroid model of solid tumors. . Complex spheroids include a stromal component modeled by human endothelial cells (HUVEC) and fibroblasts modeled by human mesenchymal stem cells (MSCs). The concentration ranges selected for each drug and investigational agent were based upon clinically achievable concentrations if the clinical Cmax of the agent was known.
Compounds. The drugs and investigational agents: novobiocin (NSC847541), ART-558 (NSC835418), RP-6685 (NSC848927), peposertib (NSC802822), ceralasertib (NSC780249), elimusertib (NSC800525), camonsertib (NSC841442), AZD-1390 (NSC803789), olaparib (NSC753686), talazoparib (NSC767125), rucaparib (NSC756644), sotorasib (NSC818433), MRTX-1133 (NSC836407), SN-38 (NSC673596), topotecan (NSC609699), epotoside (NSC141540), doxorubicin (NSC123127), gemcitabine (NSC613327), 5-fluorouracil (NSC19893), paclitaxel (NSC125973), vemurafenib (NSC761431), MSA-2 (NSC828583), SN-011 (NSC837082), adavosertib (NSC754352), prexasertib (NSC758257), carboplatin (NSC241240) and oxaliplatin (NSC266046), were obtained from the National Cancer Institute (NCI) Developmental Therapeutics Program Chemical Repository (21). The FDA-approved anticancer drug set is available from the Developmental Therapeutics Program at https://dtp.cancer.gov/organization/dscb/obtaining/. […] The stock solutions were prepared in dimethyl sulfoxide (DMSO, Sigma-Aldrich, St. Louis, MO, cat. D2650), except for the platinum compounds which were prepared in saline (Quality Biological, Gaithersburg, MD, cat. 114-055-101), at 800-fold the tested concentration and stored at -70 degrees C prior to their use. All drugs and investigational agents were tested over a range starting from a high concentration at or near the clinical Cmax and decreasing in half-log increments. If the clinical Cmax for an agent had not been determined, the highest concentration tested was 10 microM, except for SN-38, which was tested at a high concentration of 1 microM.
Cell Culture. All cells were maintained in an incubator at 37 degrees C and 5% CO2 with 95% humidity. The PDC lines were cultured according to standard operating procedures established by the NCI PDMR (https://pdmr.cancer.gov). Table 3 of the manuscript, lists the cell lines along with the number of the three cell types plated to form the mct-spheroids and media for tumor cell growth. After thawing, all PDC lines, except 997537-175-T-J1-PDC and 415267-285-R-J2-PDC, were cultured in Matrigel-coated flasks prepared with a working solution of 1X Ham's F-12 nutrient mix, without supplementation (Thermo Fisher Scientific, cat. 11765054), 100 U/mL penicillin-streptomycin (Thermo Fisher Scientific, cat. 15140122), and 2.5% Matrigel (Corning Inc., Corning, NY, cat. 354248) for the first three passages. The two PDC lines 997537-175-T-J1-PDC and 415267-285-R-J2-PDC were cultured on uncoated flasks. The 857933-349-R-J2-PDC line was cultured in 6C/Colon 1B media containing advanced DMEM/F-12 (Thermo Fisher Scientific, cat. 12634028), 10 mM HEPES (Thermo Fisher Scientific, cat. 15630080), 1X GlutaMAX supplement (Thermo Fisher Scientific, cat. 35050061), 0.1 mg/mL primocin (InvivoGen, San Diego, CA, cat. ant-pm-2), 10% defined fetal bovine serum, heat inactivated (HyClone Laboratories Inc., Logan, UT, cat. SH30070.03HI), 50% L-WRN conditioned media (ATCC, cat. CRL-3276), 1.25 mM N-Acetyl-L-cysteine (Sigma-Aldrich, cat. A9165), 10 mM nicotinamide (Sigma-Aldrich, cat. N0636), 1X B-27 supplement (Thermo Fisher Scientific, cat. 17504044), 1X N-2 supplement (Thermo Fisher Scientific, cat. […]
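Further: spheroids exposed to compounds for seven days before readout.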

Structure (SMILES): COc1cc2cc(C(=O)CCC(=O)O)sc2cc1OC + Nc1ccc(C#CCN(C(=O)Cc2ncc(C(F)(F)F)cc2C(F)(F)F)c2ccc(F)cc2)nn1
- IC50 (second compound 0.0316 µM): > 10 µM
- IC50 (second compound 0.1 µM): > 10 µM
- IC50 (second compound 0.316 µM): > 10 µM
- IC50 (second compound 1 µM): > 10 µM
- IC50 (second compound 3.16 µM): > 10 µM
- IC50 (second compound 10 µM): > 10 µM
- viability, T/C (second compound 0.0316 µM, first compound 0.0316 µM): 97.8%
- viability, T/C (second compound 0.0316 µM, first compound 0.1 µM): 121%
- viability, T/C (second compound 0.0316 µM, first compound 0.316 µM): 97.6%
- viability, T/C (second compound 0.0316 µM, first compound 1 µM): 86.3%
- viability, T/C (second compound 0.0316 µM, first compound 3.16 µM): 109%
- viability, T/C (second compound 0.0316 µM, first compound 10 µM): 94.5%
- viability, T/C (second compound 0.1 µM, first compound 0.0316 µM): 99.8%
- viability, T/C (second compound 0.1 µM, first compound 0.1 µM): 101%
- viability, T/C (second compound 0.1 µM, first compound 0.316 µM): 91%
- viability, T/C (second compound 0.1 µM, first compound 1 µM): 82%
- viability, T/C (second compound 0.1 µM, first compound 3.16 µM): 138%
- viability, T/C (second compound 0.1 µM, first compound 10 µM): 109%
- viability, T/C (second compound 0.316 µM, first compound 0.0316 µM): 104%
- viability, T/C (second compound 0.316 µM, first compound 0.1 µM): 105%
- viability, T/C (second compound 0.316 µM, first compound 0.316 µM): 90%
- viability, T/C (second compound 0.316 µM, first compound 1 µM): 94.1%
- viability, T/C (second compound 0.316 µM, first compound 3.16 µM): 107%
- viability, T/C (second compound 0.316 µM, first compound 10 µM): 92%
- viability, T/C (second compound 1 µM, first compound 0.0316 µM): 86.8%
- viability, T/C (second compound 1 µM, first compound 0.1 µM): 104%
- viability, T/C (second compound 1 µM, first compound 0.316 µM): 102%
- viability, T/C (second compound 1 µM, first compound 1 µM): 98.7%
- viability, T/C (second compound 1 µM, first compound 3.16 µM): 97.3%
- viability, T/C (second compound 1 µM, first compound 10 µM): 90.4%
- viability, T/C (second compound 3.16 µM, first compound 0.0316 µM): 92.4%
- viability, T/C (second compound 3.16 µM, first compound 0.1 µM): 111%
- viability, T/C (second compound 3.16 µM, first compound 0.316 µM): 94.9%
- viability, T/C (second compound 3.16 µM, first compound 1 µM): 97.5%
- viability, T/C (second compound 3.16 µM, first compound 3.16 µM): 97.1%
- viability, T/C (second compound 3.16 µM, first compound 10 µM): 88.6%
- viability, T/C (second compound 10 µM, first compound 0.0316 µM): 92.8%
- viability, T/C (second compound 10 µM, first compound 0.1 µM): 92%
- viability, T/C (second compound 10 µM, first compound 0.316 µM): 87.1%
- viability, T/C (second compound 10 µM, first compound 1 µM): 102%
- viability, T/C (second compound 10 µM, first compound 3.16 µM): 96%
- viability, T/C (second compound 10 µM, first compound 10 µM): 88.5%
